Results: PubChem BioAssay (NCI)
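Five compound concentrations were applied to cells in 96-well plates for 48 hours; endpoints were derived by simple linear interpolation of the resulting dose-response curve. TGI denotes the concentration required for complete inhibition of growth.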

Legend:
Experiment in all cases: DTP human tumour cell line panel, 48 h
[1] = tested on: MALME-3M melanoma
[2] = tested on: HCT-116 colon
[3] = tested on: MDA-MB-435
[4] = tested on: NCI-H522 lung
[5] = tested on: HCC-2998 colon
[6] = tested on: LOX IMVI melanoma
[7] = tested on: HS 578T breast
[8] = tested on: DU-145 prostate
[9] = tested on: NCI-H226 lung
[10] = tested on: SK-MEL-5 melanoma
[11] = tested on: RXF 393 renal
[12] = tested on: A549 NSCLC
[13] = tested on: CCRF-CEM leukemia
[14] = tested on: KM12 colon
[15] = tested on: CAKI-1 renal
[16] = tested on: OVCAR-5 ovarian
[17] = tested on: SK-MEL-2 melanoma
[18] = tested on: SF-268 CNS
[19] = tested on: MCF7 breast
[20] = tested on: OVCAR-3 ovarian
[21] = tested on: U251 CNS
[22] = tested on: UACC-257 melanoma
[23] = tested on: HOP-62 NSCLC
[24] = tested on: SN12C renal
[25] = tested on: RPMI-8226 leukemia
[26] = tested on: MDA-MB-231 breast
[27] = tested on: A498 renal
[28] = tested on: SF-295 CNS
[29] = tested on: TK-10 renal
[30] = tested on: M14 melanoma
[31] = tested on: BT-549 breast
[32] = tested on: SNB-19 CNS
[33] = tested on: T-47D breast
[34] = tested on: NCI-H460 lung
[35] = tested on: UACC-62 melanoma
[36] = tested on: SK-OV-3 ovarian
[37] = tested on: COLO 205 colon
[38] = tested on: NCI-H23 lung
[39] = tested on: HOP-92 NSCLC
[40] = tested on: K-562 leukemia
[41] = tested on: SNB-75 CNS
[42] = tested on: SF-539 CNS
[43] = tested on: IGROV1 ovarian
[44] = tested on: HL-60(TB) leukemia
[45] = tested on: SW-620 colon
[46] = tested on: OVCAR-8 ovarian
[47] = tested on: OVCAR-4 ovarian
[48] = tested on: SK-MEL-28 melanoma
[49] = tested on: PC-3 prostate
[50] = tested on: HT29 colon
[51] = tested on: HCT-15 colon
[52] = tested on: UO-31 renal
[53] = tested on: SR leukemia
[54] = tested on: EKVX NSCLC
[55] = tested on: ACHN renal
[56] = tested on: NCI/ADR-RES ovarian
[57] = tested on: 786-0 renal
[58] = tested on: MDA-N
[59] = tested on: MOLT-4 leukemia

COc1cc2c3c(cc(Cl)nc3c1OC)C(O)(CC(=O)c1ccccc1)C(=O)N2 (configuration not stated)
TGI [1]: 4.04 µM | TGI [2]: 16.2 µM | TGI [3]: 3.53 µM | TGI [4]: 8.93 µM | TGI [5]: 35.7 µM | TGI [6]: 20.6 µM | TGI [7]: 73.4 µM | TGI [8]: 30.1 µM | TGI [9]: 41.3 µM | TGI [10]: 32.3 µM | TGI [11]: 27.4 µM | TGI [12]: 33.1 µM | TGI [13]: 12.5 µM | TGI [14]: 31.3 µM | TGI [15]: 31.6 µM | TGI [16]: 35.3 µM | TGI [17]: 30 µM | TGI [18]: 13.7 µM | TGI [19]: 4.02 µM | TGI [20]: 30.2 µM | TGI [21]: 32.7 µM | TGI [22]: 21.4 µM | TGI [23]: 36 µM | TGI [24]: 19.3 µM | TGI [25]: > 26.3 µM | TGI [26]: 31.2 µM | TGI [27]: 32.3 µM | TGI [28]: 32.8 µM | TGI [29]: 32.1 µM | TGI [30]: 30.5 µM | TGI [31]: 30.4 µM | TGI [32]: 31.8 µM | TGI [33]: > 100 µM | TGI [34]: 43.1 µM | TGI [35]: 15.9 µM | TGI [36]: 32.2 µM | TGI [37]: 52.4 µM | TGI [38]: 36.9 µM | TGI [39]: 3.66 µM | TGI [40]: 16.7 µM | TGI [41]: 28.6 µM | TGI [42]: 5.27 µM | TGI [43]: 27.4 µM | TGI [44]: 3.68 µM | TGI [45]: > 44.7 µM | TGI [46]: 32.1 µM | TGI [47]: 5.49 µM | TGI [48]: 33.5 µM | TGI [49]: 29.2 µM | TGI [50]: 44.7 µM | TGI [51]: 50.9 µM | TGI [52]: 26.2 µM | TGI [53]: > 29 µM | TGI [54]: 10.4 µM | TGI [55]: 28.3 µM | TGI [56]: 63.8 µM | TGI [57]: 22 µM | TGI [58]: 3.65 µM

Cc1ccc(S(=O)(=O)NC(CO)C(=O)O)cc1 (configuration not stated)
TGI [1]: > 100 µM | TGI [59]: > 100 µM | TGI [2]: > 100 µM | TGI [3]: > 100 µM | TGI [4]: > 100 µM | TGI [5]: > 100 µM | TGI [6]: > 100 µM | TGI [7]: > 100 µM | TGI [8]: > 100 µM | TGI [9]: > 100 µM | TGI [10]: > 100 µM | TGI [11]: > 100 µM | TGI [12]: > 100 µM | TGI [13]: > 100 µM | TGI [14]: > 100 µM | TGI [15]: > 100 µM | TGI [16]: > 100 µM | TGI [17]: > 100 µM | TGI [18]: > 100 µM | TGI [19]: > 100 µM | TGI [20]: > 100 µM | TGI [21]: > 100 µM | TGI [22]: > 100 µM | TGI [23]: > 100 µM | TGI [24]: > 100 µM | TGI [25]: > 100 µM | TGI [26]: > 100 µM | TGI [27]: > 100 µM | TGI [28]: > 100 µM | TGI [29]: > 100 µM | TGI [30]: > 100 µM | TGI [31]: > 100 µM | TGI [32]: > 100 µM | TGI [33]: > 100 µM | TGI [34]: > 100 µM | TGI [35]: > 100 µM | TGI [36]: > 100 µM | TGI [37]: > 100 µM | TGI [38]: > 100 µM | TGI [39]: > 100 µM | TGI [40]: > 100 µM | TGI [41]: > 100 µM | TGI [42]: > 100 µM | TGI [43]: > 100 µM | TGI [44]: > 100 µM | TGI [45]: > 100 µM | TGI [46]: > 100 µM | TGI [47]: > 100 µM | TGI [48]: > 100 µM | TGI [49]: > 100 µM | TGI [50]: > 100 µM | TGI [51]: > 100 µM | TGI [52]: > 100 µM | TGI [53]: > 100 µM | TGI [54]: > 100 µM | TGI [55]: > 100 µM | TGI [56]: > 100 µM | TGI [57]: > 100 µM | TGI [58]: > 100 µM
